pIC50: −log10 of the molar value.
Legend:
KRAS^G12V [1] = molecular target: T1, KRAS^G12V (Homo sapiens, UniProt P01116, G12V); assay: cell-based; parameters: endogenous; KRAS degradation by capillary electrophoresis immunodetection; conditions: SW-620; read-out: Dmax 24 h SW620 [%]
Protocol: (§1) Protein Detection by Capillary Electrophoresis Cells (50 000) were seeded the day before treatment into 96-well clear-flat bottom plates and incubated overnight (37 °C, humidified tissue culture incubator, 5% CO2). Compounds were added from DMSO stock solution using a digital dispenser and cells are incubated at 37 °C as specified (24 hours for KRAS degradation, 6 hours for determination of pERK levels). At the end of the incubation, medium was removed, cells washed with ice cold PBS, PBS removed and 50 µL lysis buffer (Meso Scale Discovery #R60TX-2) supplemented with 1:100 protease inhibitor solution, 1:100 phosphatase inhibitor I, 1:100 phosphatase inhibitor II (Meso Scale Discovery #R70AA-1), 0.5 µL/mL Benzonase (Novagen #70664-3) and 10 mM dithiothreitol added to each well. Plates with lysis buffer were immediately transferred to -80 °C freezer for at least 2 hours and then thawed on ice. Lysates were transferred to a 96 well V-bottom plate and insoluble debris was pelleted by centrifugation for 20 min. at 4 000 rpm. 40 µL of the supernatant were transferred to a fresh Eppendorf PCR plate. Analysis of protein levels was conducted using the Wes System, ProteinSimple (https://www.bio-techne.com/) as specified by the manufacturer. Briefly, Wes Master Mix (12-230 kDa WES Separation Module, 8 × 25 capillary cartridges, ProteinSimple #SM-W004) and molecular weight markers were prepared as specified in the manufacturer’s recommendations. To detect primary antibodies, anti-rabbit (Protein Simple #DM-001) or anti-mouse (Protein Simple #DM-002) detection modules were used. 7.2 µL lysate + 1.8 µL master mix were combined and heated to 95 °C for 5 min. […] Next, we set out to test the ability of a single pan-KRAS degrading molecule, compound 4, to selectively suppress oncogenic signaling and proliferation in cancer cell lines driven by diverse KRAS mutants. To this end, we first confirmed degradation of KRAS by compound 4 in KRAS-dependent (GP2d, SW620 and NCI-H358 expressing KRAS^G12D, - G12V or -G12C, respectively) as well as in KRAS independent (A-375, HEK293) cell lines (Fig. 3A, fig. S4A). […] Both inhibition and degradation repressed the established markers of MAPK signaling pERK (fig. S4B-D) and DUSP6 (Fig. 3B, fig. S4E) in KRAS dependent cell lines. […] Neither degradation nor inhibition had appreciable antiproliferative effects in the KRAS independent cell lines A-375 and HEK293 (Fig. 3C, fig. S4F).

KRAS^G12D [2] = molecular target: T2, KRAS^G12D (Homo sapiens, UniProt P01116, G12D); assay: cell-based; parameters: endogenous; KRAS degradation by capillary electrophoresis immunodetection; conditions: GP2d; read-out: Dmax 24 h GP2d [%]
Protocol: as §1

KRAS^G12C = KRAS^G12C (Homo sapiens, UniProt P01116, G12C); assay: cell-based; parameters: endogenous; KRAS degradation by capillary electrophoresis immunodetection; conditions: NCI-H358; read-out: Dmax 24 h NCI-H358 [%]
Protocol: as §1

GP2d = assay: cells; parameters: DUSP6 modulation; conditions: GP2d, 6 h; read-out: IC50 DUSP6
Text: (§2) Next, we set out to test the ability of a single pan-KRAS degrading molecule, compound 4, to selectively suppress oncogenic signaling and proliferation in cancer cell lines driven by diverse KRAS mutants. To this end, we first confirmed degradation of KRAS by compound 4 in KRAS-dependent (GP2d, SW620 and NCI-H358 expressing KRAS^G12D, - G12V or -G12C, respectively) as well as in KRAS independent (A-375, HEK293) cell lines (Fig. 3A, fig. S4A). […] Both inhibition and degradation repressed the established markers of MAPK signaling pERK (fig. S4B-D) and DUSP6 (Fig. 3B, fig. S4E) in KRAS dependent cell lines. […] Neither degradation nor inhibition had appreciable antiproliferative effects in the KRAS independent cell lines A-375 and HEK293 (Fig. 3C, fig. S4F).

NCI-H358 = assay: cells; parameters: DUSP6 modulation; conditions: Homo sapiens, NCI-H358, 6 h; read-out: IC50 DUSP6
Text: as §2

SW620 = assay: cells; parameters: DUSP6 modulation; conditions: Homo sapiens, SW-620, 6 h; read-out: IC50 DUSP6
Text: as §2

KRAS^G12D [3] = molecular target: T2, KRAS^G12D; parameters: endogenous; KRAS degradation by capillary electrophoresis immunodetection; conditions: read-out: DC50 24 h GP2d
KRAS^G12V [4] = molecular target: T1, KRAS^G12V; parameters: endogenous; KRAS degradation by capillary electrophoresis immunodetection; conditions: read-out: DC50 24 h SW620 (converted)

T2 sequence (P01116 whole entry G12D): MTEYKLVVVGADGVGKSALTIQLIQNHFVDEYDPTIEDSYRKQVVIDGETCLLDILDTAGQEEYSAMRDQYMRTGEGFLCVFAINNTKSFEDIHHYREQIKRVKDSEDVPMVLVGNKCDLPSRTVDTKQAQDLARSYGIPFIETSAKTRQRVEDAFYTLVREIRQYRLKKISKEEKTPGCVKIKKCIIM
T1 sequence (P01116 whole entry G12V): as the sequence (P01116 whole entry G12D) above, with D12V counted along it
Sequence of KRAS^G12C (P01116 whole entry G12C): as the sequence (P01116 whole entry G12D) above, with D12C counted along it

Dmax (KRAS^G12V [1]) [%]	Dmax (KRAS^G12D [2]) [%]	Dmax (KRAS^G12C) [%]	pIC50 (GP2d)	pIC50 (NCI-H358)	pIC50 (SW620)	DC50 (KRAS^G12D [3]) [nM]	DC50 (KRAS^G12V [4]) [nM]	SMILES
< 15	< 15	< 25	6.61	6.86	6.37	–	–	Cc1ncsc1-c1ccc(CNC(=O)C2CC(O)CN2C(=O)C(c2cc(OCCCCN3CCCN(c4nccc(-c5noc(C6(C)CCCc7sc(N)c(C#N)c76)n5)n4)C(C)C3)no2)C(C)C)cc1 (stereo not drawn) [compound 5]
89	96	86	8.48	7.94	8.21	3.6	–	Cc1ncsc1-c1ccc(CNC(=O)[C@@H]2C[C@@H](O)CN2C(=O)[C@@H](c2cc(OCCCCN3CCCN(c4nccc(-c5noc([C@@]6(C)CCCc7sc(N)c(C#N)c76)n5)n4)[C@@H](C)C3)no2)C(C)C)cc1 [compound 4]
88	96	81	6.89	6.61	6.69	76.3	278	Cc1ncsc1-c1ccc(CNC(=O)[C@@H]2C[C@@H](O)CN2C(=O)[C@@H](NC(=O)CCCCCN2CCCN(c3nccc(-c4noc([C@@]5(C)CCCc6sc(N)c(C#N)c65)n4)n3)[C@@H](C)C2)C(C)(C)C)cc1 [compound 3]
100	–	–	–	–	–	–	1200	Cc1ncsc1-c1ccc(CNC(=O)[C@@H]2C[C@@H](O)CN2C(=O)[C@@H](NC(=O)COCCCN2CCCN(c3nccc(-c4noc([C@@]5(C)CCCc6sc(N)c(C#N)c65)n4)n3)[C@@H](C)C2)C(C)(C)C)cc1 [compound 2]
83	99	–	–	–	–	3.9	6.9	Cc1ncsc1-c1ccc([C@H](CO)NC(=O)[C@@H]2C[C@@H](O)CN2C(=O)[C@H](C(C)C)n2cc(OCCCCN3CCCN(c4nccc(-c5noc([C@@]6(C)CCCc7sc(N)c(C#N)c76)n5)n4)[C@@H](C)C3)nn2)cc1 [compound 7, ACBI3]
